The test system of experiment [1] is human skin fibroblasts in primary culture. Briefly: Procollagen potential / collagen synthesis by sirius red stain in culture supernatant. The class given is cell-based. The settings on record: TGF positive control, 96 hours; for Normalized Collagen (%) (increase in collagen synthesis): control = 0.00. The protocol: (§1) Assays were carried out to assess the potential of the polysaccharides obtained in accordance with the present invention in promoting cell proliferation (the increase in the number of cells in relation to a control group not treated with the active ingredient) by analyzing cell viability through neutral red staining. Another object of the assays was to assess the procollagen potential of active ingredients (collagen in excess produced by the cells treated with the active ingredient in relation to the untreated control cells), by detecting the collagen in the culture supernatant through the sirius red stain.
b) Whether or not the presence of the active ingredient induces the cells to produce more collagen per se. To this end, dermis-derived human fibroblasts are incubated with the […](TGF-β), known to induce collagen synthesis and secretion (positive control). Simultaneously, other fibroblasts under the same condition are incubated with the active ingredient being tested. The collagen is identified by the sirius red stain (picrosirius solution), which has affinity for procollagen and collagen molecules. The procollagen potential of each active ingredient is identified by the increase in optical density (absorbance 540 nm filter) measured after the dissolution of the pigments previously absorbed by the collagen present in the culture supernatants.

Experiment [2] shares this test system. Briefly: Cell proliferation by neutral red staining (cell viability). It counts as cell-based. The settings on record: TGF positive control, 96 hours of incubation, control = 100. As to the method:
as §1
a) Whether or not the presence of a specific active ingredient in the cell culture, for one or more periods, results in an increase in the number of cells in relation to the control group (cells not treated with the same active ingredient). The number of cells is estimated as a function of the cell viability rate, which is monitored by the incubation of fibroblasts with the vital stain neutral red at the end of the assay period (96 h). This stain is incorporated into living cells so that the cell viability rate is given by the intensity of the stain absorbed by the cells in a directly proportional ratio. The colorimetric reading is carried out in a spectrophotometer, at the wavelength of 540 nm.

The text below walks through data of US10844141B2, “Process for obtaining polysaccharides from jatoba (Hymenea courbaril l ) seeds, cosmetic composition comprising said polysaccharides and uses thereof” (NATURA COSMÉTICOS S.A., priority 2008, dated 2020).

Several values for one entry are separate records, joined by “and”; a condition that tells them apart may be missing. Identical values can stand only once.

Consider tumor growth factor-β [TGF], for which, in experiment [1] (control 0.152), the “Total Collagen ± standard deviation (optical density)” value is 0.224 ± 0.009 Abs. For the same substance, the “Normalized Collagen (%) (increase in collagen synthesis)” value amounted to 98.10% in experiment [1] and 98.1% in experiment [1] (listed as TGF-b). Besides, the “Collagen (%) after normalization by the viability index” value in experiment [1] (control = 100.00 (Table 2)) was 109.4%. In experiment [1] (normalized by viability index, control = 100.00), the “Normalized Collagen” value stood at 198.10%. Besides, the “Cell Proliferation” value in experiment [2] was 136.00% and 148.1%.
